Target: T1, mitochondrial electron transport chain complex I (ETCC1), NADH ubiquinone oxidoreductase (Bos taurus, UniProt P03887+P17694+P42026)
T1 construct: gene MT-ND1

## C=C(C)[C@@H]1C[C@@]2(C)C(=CC1=O)CC[C@@H](OC(=O)/C(C)=C\C)[C@@H]2C [PT, petasin]
  IC50: 3.55 µM

From PMC8409585 (The Journal of Clinical Investigation, 2021)
